Biological target: T1, meso-TIM (Saccharomyces cerevisiae, UniProt P00942)
T1 construct: gene TPI1; N-terminal His6 tag, pET28b, E. coli BL21(DE3); dimer; PDB 1NEY is the simulation model
T1 sequence (P00942 2-248): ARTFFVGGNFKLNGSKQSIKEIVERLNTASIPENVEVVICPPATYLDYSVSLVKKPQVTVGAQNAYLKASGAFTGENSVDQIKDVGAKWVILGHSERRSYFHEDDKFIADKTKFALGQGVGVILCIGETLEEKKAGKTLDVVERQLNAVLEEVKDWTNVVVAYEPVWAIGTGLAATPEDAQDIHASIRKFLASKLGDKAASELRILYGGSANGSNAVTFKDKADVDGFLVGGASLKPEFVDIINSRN
Assay: stopped-flow, GAPD-coupled assay, […] nm
Type: biochemical
Conditions: 50 mM HEPES pH 7.4, 150 mM NaCl, 10 mM MgCl2, 2.5 mM (NH4)2SO4; two temperatures

Which Km does the source give for `O=C(CO)COP(=O)(O)O` [dihydroxyacetone phosphate] here?
Its Km is “substrate binding kinetics were determined at two temperatures”.

Reference: doi:10.64898/2025.12.31.695415v1, “Correlated dynamics, reactive conformations and non-Arrhenius behaviour in the temperature-dependence of enzyme activity: triosephosphate isomerase” (biorxiv, 2025)
